“And” between values parts separate entries of the source, which are not always exact repeats. Equal entries are not always repeated.
Legend:
human red cells = test: Methemoglobin production in human red cells; assay type: cell-based; settings: for Methemoglobin (% of total hemoglobin concentration): 1 hour, 37° C.
Protocol: (§10) Two important toxic effects of PQ were assessed on the two derivatives: the hemolytic effect and the conversion of hemoglobin to methemoglobin.
(§11) A+ blood is washed twice in 0.15M phosphatebuffered saline at pH 7.4 containing 20 mM glucose (GPBS), and then resuspended at a concentration of 50% in the same buffer. To this suspension, an equal volume of compound dissolved in GPBS at different concentrations (test), or of GPBS (control) is added. The final hematocrit of the suspension is 25%. After 60 minutes' incubation at 37° C., the concentration of hemoglobin and methemoglobin is determined on the total suspension, and the concentration of hemoglobin present in the supernatant after centrifugation (extracellular hemoglobin) is determined, by the cyanmethemoglobin and benzidine methods (Fairbanks V.F., 1976, in "Fundamentals of Clinical Chemistry, M.W. Tietz Editors, Saunders").

Plasmodium berghei [1] = test: Therapeutic index in mice; assay type: in vivo, P. berghei; settings: i.v.; for Therapeutic index, fold higher than that of PQ: mice
Description: The therapeutic index is defined as the ratio of the toxicity, expressed as LD50, to the therapeutic activity, expressed as CPD50, in mice.
^b : The therapeutic index (TI) is the ratio of LD50 to […]

[2] = Hemolytic effect on human red cells; assay type: cell-based; settings: human, red cells, pH 7.4, 1 hour, 37° C., read-out: Hemolysis (% of total hemoglobin concentration); for hemolysis at 1 h, 1000 µM: 1 mM; for hemolysis at 1 h, 5000 µM: 5 mM
Protocol: as §10, §11

Plasmodium berghei [3] = test: Causal prophylactic activity on OF1 mice infected with Plasmodium berghei; assay type: in vivo, P. berghei (ANKA), in Swiss OF1 mice; settings: for ED50 / ED100 / minimal effective dose: Plasmodium berghei, 3 h; for ED50 / ED100 / minimal effective dose / CPD50, fold lower than for PQ: iv; for ED50 / ED100 / minimal effective dose / CPD50, causal prophylactic dose curing 50% of the infected and treated animals / ED100, totally curative dose: single i.v. three hours after sporozoites, mg PQ diphosphate equivalent/kg; for ED50: read-out: CPD50, causal prophylactic dose curing 50% of the infected and treated animals; for ED100: read-out: ED100, totally curative dose; for minimal effective dose: read-out: Minimal effective dose (MED); for PQ index: ratio CPD50 of PQ/CPD50 of the compound
Protocol: Primaquine and its derivatives are tested in the model of malaria in rodents employing the infection of mice with Plasmodium berghei, the sporozoites originating from infected Anopheles stephensi mosquitoes. This model, developed by Most H., Herman R. & Schoenfeld C. (1967), Am. J. Trop. med. Hyg. 16, 572-575, enables the casual prophylatic (tissue schizonticidal) activity of new therapeutic compounds to be determined.
The procedure used is that derived from Most H. & Montuori W.A. (1975), Am. J. Trop. Med. Hyg. 24, 179-189. It involves the system P. berghei (ANKA)/Anopheles stephensi/Swiss OF1 mice. The ANKA strain of P. b. berghei is maintained cyclically on Anopheles stephensi. The Swiss OF1 strain mouse is especially sensitive to P. b. berghei, which produces an invariably fatal infection.
The legs, wings and abdomen are removed from female mosquitoes (80 to 100 individuals per preparation) and the latter are then homogenized at 4° C. in MEM medium (GIBCO) containing 10% of fetal calf serum using a glass Potter. The sporozoite suspension is then purified from the mosquito debris by two successive centrifugations (2 min at 50 g and 5 min at 200 g) and the collected supernatant is stored at 4° C. After counting in a Petroff-Hausser chamber, the number of parasites is adjusted by dilution with the same cold medium to a density of 2×10^5 sporozoites/ml.
The causal prophylactic activity of the compounds, that is to say the dose enabling 50% of the infected animals to be cured (CPD50) is obtained by analysis of the logits of the response (expressed as a % LTS) as a function of the dose (mg PQ/kg).
A volume of 0.5 ml of the suspension containing 10^5 sporozoites is injected i.v. into female Swiss OF1 mice weighing 20 to 25 g, used for the therapeutic tests. 1.2. Chemotherapeutic treatments
Groups of 20 to 25 mice, infected as described above, are treated with a single intravenous injection of primaquine diphosphate (PQ) or of its two derivatives in hydrochloride form, three hours after inoculation of the sporozoites. The volume injected is adjusted according to the weight of the mouse, on the basis of 0.25 ml for a weight of 25 g. The compounds are diluted in phosphatebuffered saline (PBS), pH 7.0, and the pH is adjusted to 7.0. Infected but untreated mice (5 per group), receive the buffer alone and serve to monitor the infectivity of the sporozoites.
The experimental mice are kept for a period of 50 days. The development of the parasitemia is followed by daily examination of blood smears stained for 60 min with 5% Giemsa in Sorensen buffer at pH 7.2, from day 5 up to day 15. The number of infected animals can thus be determined.
The animals infected using P. berchei sporozoites are treated three hours later with a single i.v. injection of the compounds. This test enables the casual prophylactic activity of the compounds, that is the dose enabling 50% of the infected animals to be cured (CPD50), to be defined. The dose is always expressed as mg of PQ diphosphate per kg.
The animals infected using P. berghei sporozoites are treated three hours later with a single i.v. injection of the compounds. This test enables the casual prophylactic activity of the compounds, that is the dose enabling 50% of the infected animals to be cured (CPD50), to be defined. The dose is always expressed as mg of PQ diphosphate per kg.

human erythrocytes = settings: not told
Protocol: Fresh human blood (A+) on CPDA is washed twice in RPMI medium containing 20 mM glucose at pH 7.4, and then resuspended in the same medium at 37° C. to obtain a 20% suspension of red cells (2×10^9 erythrocytes/ml). To 1 ml of this suspension, 1 ml of a solution of PQ or derivatives at a concentration of 0.250 mM in the same medium at 37° C. is added.
After different incubation times at 37° C., 0.5 ml of sample is withdrawn and then transferred to an Eppendorf tube containing 0.4 ml of silicone oil (Merck, density 1.06 g/ml).
After centrifugation for 30 seconds at 12,000 g, the supernatant and the silicone oil are removed, while the cells in the pellet are lyzed by adding 0.5 ml of water. The quinoline compound present in combination with the cell lysate is then extracted by precipitation of the cell proteins with acetonitrile (0.5 ml) and thereafter analyzed by HPLC under the standard conditions.
The intracellular concentration of quinoline derivative is obtained by subtracting the concentration of compound present in the extracellular medium from the total concentration in the cell lysate. The contaminating extracellular volume is measured using tritiated inulin.

lysosomal enzymes = test: Hydrolysis in the presence of lysosomal enzymes; assay type: in vitro ADME, rat; settings: for Relative concentration of primaquine (PQ) from derivative: pH 4.5, 0 h; for Relative concentration of compound (% of initial concentration): pH 4.5, 37° C., 0 h
Protocol: (§1) The compounds, at a final concentration of 15 μg/ml, are incubated in 50 mM acetate buffer, pH 4.5, at 37° C. in the presence of 5 mM cysteine and a lysosomal enzyme fraction (0.15 mg protein/ml) purified from rat liver.
(§2) The purified lysosomal fraction is prepared according to the method described by Trouet (1974, Meth. Enzymol., 31, 323-334).
(§3) At intervals of time, corresponding samples are taken from the incubation. The enzyme reaction is stopped by adding 10 μl of 10M HCl per ml of sample. A volume of 20 μl is withdrawn and analyzed directly by HPLC under the standard conditions.
(§4) ^a : The compounds are incubated at pH 4.5 in the presence of
(§5) lysosomal enzymes (0.15 mg protein/ml) and 5 mM cysteine, and then
(§6) analyzed by spectrophotometry after HPLC. The initial purity of the
(§7) ^b : The results represent the relative concentration of primaquine
(§8) (PQ) and derivatives (PQX) in terms of the incubation time, expressed as
(§9) percentage of the initial concentration (time 0) after extraction.

[4] = Hydrolysis in the presence of lysosomal enzymes; assay type: in vitro ADME, rat; settings: rat; for metabolised at 1 h: pH 4.5, 1 h; for metabolised at 2 h: pH 4.5, 2 h; for metabolised at 3 h: pH 4.5, 3 h; for metabolised at 6 h: pH 4.5, 6 h; for metabolised at 24 h: pH 4.5, 24 h
Protocol: as §1, §2, §3, §4, §5, §6, §7, §8, §9

[5] = liver lysosomal enzyme fraction, read-out: Relative concentration of primaquine (PQ) from derivative
[6] = liver lysosomal enzymes, pH 4.5, 37° C., read-out: Relative concentration of compound (% of initial concentration)

Structure (SMILES) | Methemoglobin (% of total hemoglobin concentration) (human red cells; 1 mM) | Methemoglobin (% of total hemoglobin concentration) (human red cells; 5 mM) | Therapeutic index, fold higher than that of PQ (Plasmodium berghei [1]) | hemolysis at 1 h, 1000 µM [2] [%] | hemolysis at 1 h, 5000 µM [2] [%] | ED50 (Plasmodium berghei [3]) [mg/kg] | ED100 (Plasmodium berghei [3]) [mg/kg] | minimal effective dose (Plasmodium berghei [3]) [mg/kg] | CPD50, fold lower than for PQ (Plasmodium berghei [3]) | PQ index (Plasmodium berghei [3]) | CPD50, causal prophylactic dose curing 50% of the infected and treated animals (Plasmodium berghei [3]) | ED100, totally curative dose (Plasmodium berghei [3]) | Relative concentration of primaquine (PQ) from derivative (lysosomal enzymes) [%] | Relative concentration of compound (% of initial concentration) (lysosomal enzymes) [%] | metabolised at 1 h [4, 5] [%] | metabolised at 2 h [4, 5] [%] | metabolised at 3 h [4, 5] [%] | metabolised at 6 h [4, 5] [%] | metabolised at 24 h [4, 5] [%] | remaining at 1 h [4, 6] [%] | further results
COc1cc(NC(C)CCCNC(=O)CC[C@H](N)C(=O)O)c2ncccc2c1 (stereo partly drawn) [gGLU-PQ, N-(γ-L-glutamyl)primaquine] | 1.4 (0.0) % | 5.3 (0.0) % | at least 11 -fold | 0.27 | 0.58 | 8.7 | 24 | 3.2 | 22 -fold | 2.15 | 8.7 (0.7) mg/kg | 24.2 (9.8) mg/kg | 0 | 100 | 0 | 0 | 0 | 0 | 0 | 104 | Therapeutic index (TI) (Plasmodium berghei [1]; ratio of LD50 to CPD50, mice): > 19 and 19.4; Activity compared with PQ (Plasmodium berghei [3]; mouse, in vivo): at least twice as active as PQ; Accumulation in erythrocytes (human erythrocytes): not accumulated in erythrocytes; remaining at 2 h [4, 6]: 95%; remaining at 3 h [4, 6]: 98%; remaining at 6 h [4, 6]: 101%; remaining at 24 h [4, 6]: 105%
COc1cc(NC(C)CCCNC(=O)[C@@H]2CCC(=O)N2)c2ncccc2c1 (stereo partly drawn) [pGLU-PQ, N-(α-L-pyroglutamyl)primaquine] | 0.9 (0.1) % | 3.9 (0.0) % | 9 -fold | 0.32 | 0.44 | 10 | 22 | 4.6 | 1.9 -fold | 1.87 | 10.0 (0.7) mg/kg | 21.8 (5.7) mg/kg | 1 | 99 | 0 | 0 | 0 | 0 | 0 | 94 | Methemoglobin (% of total hemoglobin concentration) (human red cells; 2 mM): 2.2 (0.9) %; Methemoglobin (% of total hemoglobin concentration) (human red cells; 10 mM): 6.0 (0.2) %; Oxidation of hemoglobin, times less than PQ (human red cells; same concentration as PQ (10 mM)): 1.5 times less; hemolysis at 1 h, 2000 µM ([2]; 2 mM): 0.24%; hemolysis at 1 h, 10000 µM ([2]; 10 mM): 2.34%; Activity relative to PQ, fold as active (Plasmodium berghei [3]; model of malaria in mice): at least 1.9 -fold; Time to maximum level in erythrocytes (human erythrocytes): 60 min; Onset of gradual decrease in relative concentration (lysosomal enzymes): > 6 h; metabolised at 48 h ([4]; liver lysosomal enzyme fraction, pH 4.5, 48 h, read-out: Relative concentration of primaquine (PQ) from derivative): 0%; remaining at 2 h [4, 6]: 97%; remaining at 3 h [4, 6]: 97%; remaining at 6 h [4, 6]: 96%; remaining at 24 h [4, 6]: 76%; remaining at 48 h ([4]; liver lysosomal enzymes, pH 4.5, 37° C., 48 h, read-out: Relative concentration of compound (% of initial concentration)): 47%

From patent US5110935A, “New compounds which are active against the tissue forms of malaria and method of preparation” (Ire-Celltarg, S.A., priority 1988, dated 1992)
